Reference: patent publication US9486456B2, “Treatment of esophageal motility disorder using sepiapterin, tetrahydrobiopterin and derivatives thereof” (The Board of Regents of the University of Texas System, priority 2006, dated 2016)

Legend:
[1] = test system: gastric LM-MPs; assay: NO release from gastric LM-MP incubated with DAHP; settings: DAHP 10 mM, 48 hours, healthy female rat gastric LM-MP
Experimental: (§1) Gastric LM-MPs were incubated for 48 hrs in the presence or the absence of DAHP (10 mM) and nNOS dimerization (FIG. 9A-9B) in tissues and NO release (FIG. 9C) in the media were assessed. (n=3).
Gastric LM-MPs were incubated for 24 hours in DMEM supplemented with 2% neurobasal medium (NB27) and 1% antibiotics. The concentration of NO (micromoles/mg tissue) was measured using readily available NO kit (Cayman corporation). […] The present invention contemplates examining whether supplementation of BH4 and female sex hormones restores reduced NO release in diabetic female gastric LM-MP tissues.
(§2) The present invention examined whether treatment with DAHP in vitro uncoupled gastric nNOS dimerization and NO release in healthy female rats. Gastric longitudinal muscle-myenteric plexus (LM-MP) were incubated for 48 hours in the presence or absence of DHAP (10 mM). It was observed that inhibition of BH4 biosynthesis with DAHP decreased both nNOS dimerization (FIGS. 9A-9B) and NO release (FIG. 9C). These additional data further support the hypothesis that impaired biosynthesis of gastric BH4 accounts for the decrease in nNOS activity and nitrergic relaxation in female diabetic gastroparesis.

[2] = test system: nNOS; assay: nNOS dimerization in gastric LM-MP incubated in vitro; settings: DAHP 10 mM, 48 hours, healthy female rat gastric LM-MP
Experimental: as §1, §2

[3] = test system: gastric tissues; assay: Nitrergic relaxation of gastric tissues after in vitro incubation (organ bath); set-up: species or system rat; settings: DAHP 10 mM, 3 hours incubation, female control gastric tissues, n=2

## Nc1cc(O)nc(N)n1 [DAHP, 2,4-diamino-6-hydroxypyrimidine]
[1]
  Effect on NO release: decreased
[2]
  Effect on nNOS dimerization: decreased
[3]
  Effect on nitrergic relaxation: inhibited
